Results published in patent publication US10500207B2, “Compounds for the treatment of diseases associated with amyloid or amyloid-like proteins” (AC Immune SA, priority 2010, dated 2019).

Molecular target: Aβ1-42 peptide (Homo sapiens, UniProt P05067)
Test: Thioflavin T spectrofluorescence assay (ThT-assay): inhibition of Aβ1-42 aggregation (% inhibition at 330 μM; IC50 from dilution series)
Conditions: 24 h, read-out: Inhibition at 330 μM [%], ThT assay; 330 μM small molecule, 33 μM Aβ1-42 (10:1), 24 hrs at 37° C.; mean ± standard deviation of two independent experiments
Procedure: Aβ1-42 lyophilized powder (Bachem) was reconstituted in hexafluoroisopropanol (HFIP) to 1 mM. The peptide solution was sonicated for 15 min at room temperature, agitated overnight, and aliquots were made into non-siliconized microcentrifuge tubes. The HFIP was then evaporated under a stream of argon. The resulting peptide film was dried under vacuum for 10 min, tightly sealed and stored at −80° C. until used.
A positive control without a small molecule was prepared to measure maximum RFU. A negative control without Aβ1-42 was prepared for each small molecule. […] The solutions were then incubated for 24 hrs at 37° C., and the spectrofluorescence (relative fluorescence units; RFU) were read in six replicates in black 384-well assay plates (Perkin-Elmer) on a Perkin-Elmer FluoroCount spectrofluorometer. The inhibition of aggregation is expressed as mean % inhibition±1 standard deviation (SD) according to the following equation:
Racemic compounds and their enantiomers were tested for their ability to inhibit amyloid peptide aggregation using the ThT assay. To determine the IC50, the following dilutions of the compounds were used in the ThT assay described above:

Chain of Aβ1-42 peptide (P05067 672-713 limits assumed): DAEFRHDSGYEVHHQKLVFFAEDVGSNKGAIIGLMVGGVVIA

inhibition at 330 µM [%]	SMILES
75.5 ± 7.8	Cn1cnc2ccc(Nc3ccc4c5c(n(C)c4n3)CCC5)cc21 [Example 175]
29.6 ± 6.2	Cn1c2c(c3cc(Nc4ccc5c(c4)OCCO5)ccc31)CS(=O)(=O)CC2 [Example 177]
30.2 ± 0.9	Cn1c2c(c3cc(Nc4ccc(C(F)(F)F)nc4)ccc31)CS(=O)(=O)CC2 [Example 179]
6.6 ± 4.3	Cn1cnc2ccc(Nc3ccc4c(c3)c3c(n4C)CCS(=O)(=O)C3)cc21 [Example 181]
66.1 ± 6.9	CN1CCN(c2ccc(Nc3ccc4c(c3)c3c(n4C)CCS(=O)(=O)C3)cc2)CC1 [Example 182]
42.3 ± 3.1	Cn1c2c(c3cc(Nc4ccc(F)nc4)ccc31)CS(=O)(=O)CC2 [Example 183]
55.2 ± 6	c1ccc(Nc2ccc3c(c2)OCO3)cc1 [Example 185]
66.5 ± 2.4	Fc1ccc(Nc2ccc3c(c2)OCO3)cc1F [Example 186]
83.3 ± 6	c1cc(N2CCOCC2)ccc1Nc1ccc2c(c1)OCO2 [Example 188]
12.6 ± 5.5	CN1CCN(C(=O)c2ccc(Nc3ccc(F)cc3)cc2)CC1 [Example 189]
92.1 ± 0.3	COC1CCc2c(c3ccc(Nc4ccc5c(c4)OCCO5)nc3n2C)C1 (stereo not drawn) [Example 198]
93.3 ± 0.1	CN1CCc2ccc(Nc3ccc4c5c(n(C)c4n3)CCCC5)cc2C1 [Example 201]
86.1 ± 1.6	Cn1c2c(c3ccc(Nc4ccc5c(c4)OCCO5)cc31)CNCC2 [Example 202]
93.5 ± 0.4	COC1CCc2c(c3ccc(Nc4ccc(F)c(F)c4)nc3n2C)C1 (stereo not drawn) [Example 204]
91.7 ± 0.1	COC1CCc2c(c3ccc(Nc4ccc5c(c4)OCO5)nc3n2C)C1 (stereo not drawn) [Example 205]
75.6 ± 13.4	Cn1c2c(c3ccc(Nc4ccc5c(c4)OCCO5)cc31)CN(CCCCS(C)(=O)=O)CC2 [Example 207]
66.2 ± 6.5	Cn1c2c(c3cc(Nc4ccc5c(c4)OCCO5)ccc31)CN(CCCCS(C)(=O)=O)CC2 [Example 209]
43.2 ± 12.9	Cn1c2c(c3ccc(Nc4ccc(F)c(F)c4)cc31)CN(CCCCS(C)(=O)=O)CC2 [Example 210]

Second part, the molecule before the results:

SMILES	inhibition at 330 µM [%]
Cn1c2c(c3ccc(Nc4ccc5c(c4)OCCO5)nc31)CCC2 [Example 173]	90.1 ± 2.3
CN1CCc2ccc(Nc3ccc4c5c(n(C)c4n3)CCC5)cc2C1 [Example 174]	87.2 ± 1.3
Cn1c2c(c3cc(Nc4ccc(F)c(F)c4)ccc31)CS(=O)(=O)CC2 [Example 176]	41.5 ± 3.6
COc1cc(Nc2ccc3c(c2)c2c(n3C)CCS(=O)(=O)C2)ccc1C [Example 178]	35.4 ± 5.9
CN1CCc2ccc(Nc3ccc4c(c3)c3c(n4C)CCS(=O)(=O)C3)cc2C1 [Example 180]	50.2 ± 0.9
Cn1c2c(c3cc(Nc4ccc(N5CCOCC5)cc4)ccc31)CS(=O)(=O)CC2 [Example 184]	41.3 ± 1.1
c1cc2c(cc1Nc1ccc3c(c1)OCO3)OCO2 [Example 187]	82.2 ± 6
CN1CCN(C(=O)c2ccc(Nc3ccc4c(c3)OCO4)cc2)CC1 [Example 190]	20.1 ± 4.6
COC1CCc2c(c3ccc(Nc4ccc(F)cc4)cc3n2C)C1 (stereo not drawn) [Example 191]	89.7 ± 1.4
COC1CCc2c(c3ccc(Nc4ccc(N5CCOCC5)cc4)nc3n2C)C1 (stereo not drawn) [Example 193]	54.3 ± 3.4
CN1CCC(c2c[nH]c3cc(Nc4ccc5c(c4)OCCN5C)ccc23)CC1 [Example 194]	106.1 ± 0.3
CN1CCC(c2c[nH]c3cc(Nc4ccc(F)cc4)ccc23)CC1 [Example 195]	89.7 ± 2.4
CN1CCC(c2c[nH]c3cc(Nc4ccc5c(C6CCN(C)CC6)cn(C)c5n4)ccc23)CC1 [Example 196]	80 ± 4.6
CCOC(=O)N1CCc2c(c3cc(Nc4ccc(F)c(F)c4)ccc3n2C)C1 [Example 199]	68.6 ± 0.5
CN1CCC(c2c[nH]c3cc(Nc4ccc5ncn(C)c5c4)ccc23)CC1 [Example 200]	67.4 ± 3.4
CC(C)OC1CCc2c(c3ccc(Nc4ccc5c(c4)OCCO5)nc3n2C)C1 (stereo not drawn) [Example 203]	93.4 ± 3.5
CN1CCc2c(c3cc(Nc4ccc(F)c(F)c4)ccc3n2C)C1 [Example 206]	94.5 ± 0.7
Cn1c2c(c3cc(Nc4ccc(F)c(F)c4)ccc31)CN(CCCCS(C)(=O)=O)CC2 [Example 208]	85 ± 3.3
